Data: patent US10457707B2, “Substituted urea depsipeptide analogs as activators of the CLPP endopeptidase” (priority 2015, dated 2019)
In brackets after ≈: the same amount, converted by molar mass. Like-named read-outs stand apart in the source and are kept apart here. *1 amine or outer side, *2 acyl side, *3 side chain or, on linkers, in order; H or OH if unused. Where a SMILES comes first, the peptide text is derived from it. Bridges are numbered along the chain shown (N, C = ends). [ ]: non-standard residue; d: D form. The star is where a group is joined. ξ: configuration not given here. Phe(3,5-F2) = N[C@@H](Cc1cc(F)cc(F)c1)C(=O)O; NH(4-OCF3-phenyl) = FC(F)(F)Oc1ccc(N*)cc1; ξPro(4S-Me) = C[C@@H]1CNC(C(=O)O)C1; ξPro(4R-Me) = C[C@H]1CNC(C(=O)O)C1; Heptenoyl(2E) = CCCC/C=C/C(=O)*; NH(4-Me-phenyl) = Cc1ccc(N*)cc1; aThr = C[C@H](O)[C@H](N)C(=O)O; X5 = O=C(C1COCCN1[*:1])[*:2]; Pip = O=C(O)[C@@H]1CCCCN1; NMeA = CN[C@@H](C)C(=O)O; ξPip = O=C(O)C1CCCCN1; CO = O=C([*:1])[*:2]; ξP = O=C(O)C1CCCN1

Tests used:
Format in all cases: cell-based
[1] = test system: Vero (kidney epithelial cells; ATCC CCL-81); test: Cytotoxicity assay (CellTiter-Glo cell viability, 72 hours)
Description: Cytotoxicity was determined by determining the effect of compounds on cell viability. Vero (kidney epithelial cells; ATCC CCL-81) monolayers were trypsinized and 5000 cells/well were seeded (10-15% confluency) into white-wall, flat bottom 96 well microwell plates (Corning) using enriched Dulbecco's Modified Eagle's Medium (Hyclone:DMEM/High Glucose) containing 10% Fetal Bovine Serum (ATCC-30-2020). Plates were incubated overnight at 37° C. in the presence of 5% CO2. Drug-free media was then replaced with media containing serial dilutions of test compound or DMSO carrier. After an additional 72 hours of incubation, viability was indirectly measured using the CellTiter-Glo® Luminescent Cell Viability (Promega) assay. Assay plates were read at peak emission wavelength of 560 nm using a EnVision® Multilabel Plate Reader (Perkin Elmer) or PHERAstar FS Multilabel reader (BMG, Cary, N.C.). […] USA, www.graphpad.com]. For each experiment, compounds were tested in duplicate. IC50 values presented are the range of two biologically independent experiments.

[2] = test system: Bacillus subtilis, ATCC 23857; test: Minimal inhibitory concentration assay (microbroth dilution)
Summary of the method: (§1)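 Compound is serially diluted two-fold in the appropriate broth, and bacterial inoculum at about 10^5 cfu/mL is added so the highest final concentration is 200 μM. Plates stay overnight at 37 °C under aerobic conditions before growth is scored by eye.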

[3] = test system: Enterococcus faecalis, ATCC 33186; test: as above; conditions: Enterococcus faecalis, ATCC33186; read-out: Minimal Inhibitory Concentrations E. faecalis ATCC 33186
Summary of the method: as §1

[4] = test system: Staphylococcus aureus, ATCC 29213; test: as above; conditions: ATCC29213, read-out: Minimal Inhibitory Concentrations S. aureus ATCC 29213
Summary of the method: as §1

[5] = test system: Staphylococcus aureus, NRS70; test: as above
Summary of the method: as §1

[6] = test system: Streptococcus pyogenes, ATCC 700294; test: as above
Summary of the method: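 Plates with two-fold compound dilution series in broth were incubated overnight, aerobically, at 37° C, following CLSI microdilution guidance.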

[7] = test system: Staphylococcus aureus, USA 300 wherein ClpP is inactivated; test: Minimal inhibitory concentration assay
Summary of the method: as §1

[8] = test system: Staphylococcus aureus, USA 300; test: Minimal inhibitory concentration assay; conditions: USA300, read-out: Minimal Inhibitory Concentrations S. aureus USA 300
Summary of the method: as §1

[9] = test system: Streptococcus pneumoniae, R6; test: Minimal inhibitory concentration assay; conditions: read-out: Minimal Inhibitory Concentrations S. pneumoniae R6
Summary of the method: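 Microbroth dilution with two-fold serial compound dilutions in broth, incubated aerobically overnight at 37° C. MIC taken as the lowest concentration preventing bacterial growth.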

[10] = Vero cells, 72 hours, growth inhibition, read-out: Cytotoxicity IC50
[11] = Bacillus subtilis, ATCC23857; read-out: Minimal Inhibitory Concentrations B. subtilis ATCC 23857
[12] = Staphylococcus aureus, NRS70; read-out: Minimal Inhibitory Concentrations S. aureus NRS70
[13] = Streptococcus pyogenes, ATCC700294; read-out: Minimal Inhibitory Concentrations S. pyogenes ATCC 700294
[14] = Bacillus subtilis, ATCC23857, read-out: Minimal Inhibitory Concentrations B. subtilis ATCC 23857
[15] = Staphylococcus aureus, NRS70, read-out: Minimal Inhibitory Concentrations S. aureus NRS70
[16] = Streptococcus pyogenes, ATCC700294, read-out: Minimal Inhibitory Concentrations S. pyogenes ATCC 700294

SMILES | IC50 [1, 10] | MIC [2, 11] | MIC [3] | MIC [4] | MIC [5, 12] | MIC [6, 13] | Minimal Inhibitory Concentrations S. aureus USA 300 ΔClpP [7] | MIC [8] | MIC [2, 14] | MIC [5, 15] | MIC [6, 16] | MIC [9] | IC50 ([1]; African green monkey, 72 h)
CCCC/C=C/C(=O)N[C@@H](Cc1cc(F)cc(F)c1)C(=O)N[C@@H]1C(=O)N2CCC[C@H]2C(=O)N2CCCC[C@H]2C(=O)N[C@@H](C)C(=O)N2CCC[C@H]2C(=O)O[C@H]1C [ADEP 2719, reference compound] ({Heptenoyl(2E)}-[Phe(3,5-F2)][aThr]P[Pip]AP; ester 2-C) | 37.7 ± 3.4 µM | < 0.01 µM | 0.08 µM (≈ 0.0617 µg/mL) | 0.07 µM (≈ 0.054 µg/mL) | 0.08 µM (≈ 0.0617 µg/mL) | < 0.2 µM | 500 µM | < 0.19 µM | – | – | – | – | –
Cc1ccc(NC(=O)N[C@@H](Cc2cc(F)cc(F)c2)C(=O)N[C@H]2COC(=O)[C@@H]3C[C@@H](C)CN3C(=O)[C@H](C)NC(=O)[C@@H]3CCCCN3C(=O)[C@@H]3CCCN3C2=O)cc1 [Compound 24, (S)-3-(3,5-difluorophenyl)-N-((2R,6S,8aS,14aS,20S,23aS)-2,6-dimethyl-5,8,14,19,23-pentaoxooctadecahydro-1H,5H,14H,19H-pyrido[2,1-i]dipyrrolo[2,1-c:2′,1′-l][1]oxa[4,7,10,13]tetraazacyclohexadecin-20-yl)-2-(3-(p-tolyl)ureido)propanamide] | 93.8 ± 4.8 µM | – | – | 0.5 µM (≈ 0.397 µg/mL) | – | – | – | – | 2.2 µM (≈ 1.75 µg/mL) | 0.5 µM (≈ 0.397 µg/mL) | 0.5 µM (≈ 0.397 µg/mL) | – | –
Cc1ccc(NC(=O)N[C@@H](Cc2cc(F)cc(F)c2)C(=O)N[C@@H]2C(=O)N3CCCC3C(=O)N(C)[C@@H](C)C(=O)N[C@@H](C)C(=O)N3CCCC3C(=O)O[C@H]2C)cc1 (stereo partly drawn) [Compound 25, (2S)-3-(3,5-difluorophenyl)-N-((6S,9S,11aS,17S,18S)-6,9,10,18-tetramethyl-5,8,11,16,20-pentaoxohexadecahydro-1H,5H,16H-dipyrrolo[2,1-c:2′,1′-l][1]oxa[4,7,10,13]tetraazacyclohexadecin-17-yl)-2-(3-(p-tolyl)ureido)propanamide] ({NH(4-Me-phenyl)-CO}-[Phe(3,5-F2)][aThr][ξP][NMeA]A[ξP]; ester 2-C) | 10.8 ± 1 µM | – | – | 0.78 µM (≈ 0.599 µg/mL) | – | – | 200 µM | 0.78 µM (≈ 0.599 µg/mL) | 0.02 µM (≈ 0.0154 µg/mL) | 0.78 µM (≈ 0.599 µg/mL) | 1 µM (≈ 0.768 µg/mL) | 0.254 µM (≈ 0.195 µg/mL) | –
Cc1ccc(NC(=O)N[C@@H](Cc2cc(F)cc(F)c2)C(=O)N[C@@H]2C(=O)N3CCCC3C(=O)N(C)[C@@H](C)C(=O)N[C@@H](C)C(=O)N3C[C@@H](C)CC3C(=O)O[C@H]2C)cc1 (stereo partly drawn) [Compound 26, (2S)-3-(3,5-difluorophenyl)-N-((2S,6S,9S,11aS,17S,18S)-2,6,9,10,18-pentamethyl-5,8,11,16,20-pentaoxohexadecahydro-1H,5H,16H-dipyrrolo[2,1-c:2′,1′-l][1]oxa[4,7,10,13]tetraazacyclohexadecin-17-yl)-2-(3-(p-tolyl)ureido)propanamide] ({NH(4-Me-phenyl)-CO}-[Phe(3,5-F2)][aThr][ξP][NMeA]A[ξPro(4S-Me)]; ester 2-C) | 40.5 ± 3.8 µM | – | – | 0.2 µM (≈ 0.156 µg/mL) | – | – | 200 µM | 0.39 µM (≈ 0.305 µg/mL) | 0.03 µM (≈ 0.0235 µg/mL) | 0.2 µM (≈ 0.156 µg/mL) | 0.5 µM (≈ 0.391 µg/mL) | 0.125 µM (≈ 0.0977 µg/mL) | –
Cc1ccc(NC(=O)N[C@@H](Cc2cc(F)cc(F)c2)C(=O)N[C@@H]2C(=O)N3CCCC3C(=O)N3CCOCC3C(=O)N[C@@H](C)C(=O)N3C[C@@H](C)CC3C(=O)O[C@H]2C)cc1 (stereo partly drawn) [Compound 33, (S)-3-(3,5-difluorophenyl)-2-(3-(p-tolyl)ureido)-N-((6aS,12S,13S,15aS,17S,21S,23aS)-13,17,21-trimethyl-6,11,15,20,23-pentaoxooctadecahydro-6H,11H,15H-[1,4]oxazino[3,4-i]dipyrrolo[2,1-c:2′,1′-l][1]oxa[4,7,10,13]tetraazacyclohexadecin-12-yl)propanamide] ({NH(4-Me-phenyl)-CO}-[Phe(3,5-F2)][aThr][ξP][X5]A[ξPro(4S-Me)]; ester 2-C) | 41 ± 4.3 µM | – | – | 0.2 µM (≈ 0.162 µg/mL) | – | – | 200 µM | 0.2 µM (≈ 0.162 µg/mL) | 0.2 µM (≈ 0.162 µg/mL) | 0.1 µM (≈ 0.081 µg/mL) | 0.39 µM (≈ 0.316 µg/mL) | 0.098 µM (≈ 0.0794 µg/mL) | –
C[C@H]1CC2C(=O)O[C@@H](C)[C@H](NC(=O)[C@H](Cc3cc(F)cc(F)c3)NC(=O)Nc3ccc(OC(F)(F)F)cc3)C(=O)N3CCCC3C(=O)N3CCOCC3C(=O)N[C@@H](C)C(=O)N2C1 (stereo partly drawn) [Compound 34, (S)-3-(3,5-difluorophenyl)-2-(3-(4-(trifluoromethoxy)phenyl)ureido)-N-((6aS,12S,13S,15aS,17S,21S,23aS)-13,17,21-trimethyl-6,11,15,20,23-pentaoxooctadecahydro-6H,11H,15H-[1,4]oxazino[3,4-i]dipyrrolo[2,1-c:2′,1′-l][1]oxa[4,7,10,13]tetraazacyclohexadecin-12-yl)propanamide] ({NH(4-OCF3-phenyl)-CO}-[Phe(3,5-F2)][aThr][ξP][X5]A[ξPro(4S-Me)]; ester 2-C) | – | 0.02 µM (≈ 0.0176 µg/mL) | – | 0.05 µM (≈ 0.044 µg/mL) | 0.02 µM (≈ 0.0176 µg/mL) | 0.1 µM (≈ 0.088 µg/mL) | 50 µM | 0.05 µM (≈ 0.044 µg/mL) | – | – | – | 0.049 µM (≈ 0.0431 µg/mL) | 26 ± 2.6 µM
Cc1ccc(NC(=O)N[C@@H](Cc2cc(F)cc(F)c2)C(=O)N[C@@H]2C(=O)N3CCCC3C(=O)N3CCCCC3C(=O)N[C@@H](C)C(=O)N3C[C@H](C)CC3C(=O)O[C@H]2C)cc1 (stereo partly drawn) [Compound 39, (S)-3-(3,5-difluorophenyl)-2-(3-(p-tolyl)ureido)-N-((2R,6S,8aS,14aS,20S,21S,23aS)-2,6,21-trimethyl-5,8,14,19,23-pentaoxooctadecahydro-1H,5H,14H,19H-pyrido[2,1-i]dipyrrolo[2,1-c:2′,1′-l][1]oxa[4,7,10,13]tetraazacyclohexadecin-20-yl)propanamide] ({NH(4-Me-phenyl)-CO}-[Phe(3,5-F2)][aThr][ξP][ξPip]A[ξPro(4R-Me)]; ester 2-C) | 40 ± 4.1 µM | – | – | 0.05 µM (≈ 0.0404 µg/mL) | – | – | 100 µM | 0.05 µM (≈ 0.0404 µg/mL) | 0.02 µM (≈ 0.0162 µg/mL) | 0.05 µM (≈ 0.0404 µg/mL) | 0.2 µM (≈ 0.162 µg/mL) | 0.05 µM (≈ 0.0404 µg/mL) | –
Cc1ccc(NC(=O)N[C@@H](Cc2cc(F)cc(F)c2)C(=O)N[C@H]2COC(=O)C3C[C@H](C)CN3C(=O)[C@H](C)NC(=O)C3CCCCN3C(=O)C3CCCN3C2=O)cc1 (stereo partly drawn) [Compound 45, (S)-3-(3,5-difluorophenyl)-N-((2S,6S,8aS,14aS,20S,23aS)-2,6-dimethyl-5,8,14,19,23-pentaoxooctadecahydro-1H,5H,14H,19H-pyrido[2,1-i]dipyrrolo[2,1-c:2′,1′-l][1]oxa[4,7,10,13]tetraazacyclohexadecin-20-yl)-2-(3-(p-tolyl)ureido)propanamide] | 56.8 ± 6.7 µM | – | – | 0.4 µM (≈ 0.318 µg/mL) | – | – | 100 µM | 0.4 µM (≈ 0.318 µg/mL) | – | 0.2 to 0.4 µM (≈ 0.159 to 0.318 µg/mL) | 0.4 µM (≈ 0.318 µg/mL) | 0.1 µM (≈ 0.0794 µg/mL) | –
